The record followed here is PubChem BioAssay (NCI).

The structures appear in SMILES notation.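 Dose response: 5 concentrations. Exposure: 48 h. Format: 96-well plates. Endpoint: linear interpolation; highest concentration if not reached. GI50: concentration for 50% inhibition of growth. TGI denotes the concentration required for complete inhibition of growth.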 Where a SMILES comes first, the peptide text is derived from it. Bridges are numbered along the chain shown (N, C = ends). Some results are limits rather than exact numbers.

Among the test systems are TK-10 renal; SK-OV-3 ovarian; NCI/ADR-RES ovarian; IGROV1 ovarian; NCI-H522 lung; SR leukemia; OVCAR-8 ovarian; OVCAR-3 ovarian.
Common to all, as to experiment: inhibition of tumour cell growth, NCI panel, 48 h

Consider `CCOC1Oc2ccccc2C(=O)/C1=C\Nc1ccc(C(=O)O)c(O)c1` (configuration not stated), for which the GI50 in the experiment with TK-10 renal is 22.8 µM; with SK-OV-3 ovarian, 21.7 µM; in the experiment on NCI/ADR-RES ovarian it was 20.5 µM; with IGROV1 ovarian, 43.9 µM; in the experiment with NCI-H522 lung, over 100 µM; in the experiment on SR leukemia, 39.4 µM. Moreover, the figures for the GI50 in the experiment on OVCAR-8 ovarian and in the experiment on OVCAR-3 ovarian were 19.3 µM and 25.2 µM, respectively. Besides, the TGI in the experiment on TK-10 renal was 61.3 µM; with SK-OV-3 ovarian, 67.6 µM; in the experiment with NCI/ADR-RES ovarian, 62 µM; in the experiment with IGROV1 ovarian, over 100 µM; with NCI-H522 lung, over 100 µM; with SR leukemia it was over 100 µM. In addition, the TGI stood at 54 µM in the experiment with OVCAR-8 ovarian and 56.3 µM with OVCAR-3 ovarian.

For `CC[C@H](C)C(=O)O[C@H]1CCC=C2C=C[C@H](C)[C@H](CC[C@@H]3C[C@@H](O)CC(=O)O3)[C@H]21`, the GI50 was 22.5 µM in the experiment with TK-10 renal; 5.96 µM in the experiment on SK-OV-3 ovarian; 3.34 µM with NCI/ADR-RES ovarian; 5 µM with IGROV1 ovarian; 2.41 µM in the experiment with NCI-H522 lung; 3.79 µM with SR leukemia. The GI50 in the experiment with OVCAR-8 ovarian is 5.05 µM. For the same compound, the TGI was over 100 µM in the experiment on TK-10 renal; over 100 µM in the experiment on SK-OV-3 ovarian; over 100 µM in the experiment with NCI/ADR-RES ovarian; over 100 µM in the experiment on IGROV1 ovarian; 39.6 µM with NCI-H522 lung; over 59.4 µM in the experiment with SR leukemia. For the same compound, the TGI in the experiment on OVCAR-8 ovarian and in the experiment with OVCAR-3 ovarian was over 100 µM throughout.

For the compound `O=C(O)C1C2C=CC(O2)C1C(=O)NCc1ccncc1` (configuration not stated), the TGI with TK-10 renal, in the experiment on SK-OV-3 ovarian, in the experiment with IGROV1 ovarian, in the experiment on NCI-H522 lung, in the experiment on SR leukemia and in the experiment on OVCAR-8 ovarian was over 100 µM throughout. The TGI with OVCAR-3 ovarian is over 100 µM.

As to `COc1ccc2[nH]cc(Cc3c[nH]c4ccc(OC)cc34)c2c1`, the GI50 in the experiment on TK-10 renal is 15.9 µM; in the experiment with NCI/ADR-RES ovarian, 20.4 µM; with IGROV1 ovarian, 15.4 µM; with NCI-H522 lung it was 25.5 µM; in the experiment with SR leukemia, 77.8 µM; with OVCAR-8 ovarian it was 17.4 µM. In addition, in the experiment with OVCAR-3 ovarian, the GI50 is 13.3 µM. The TGI is 44 µM in the experiment with TK-10 renal; 42.1 µM in the experiment with NCI/ADR-RES ovarian; 33.1 µM with IGROV1 ovarian; 77.3 µM in the experiment on NCI-H522 lung; over 100 µM with SR leukemia; 37.4 µM with OVCAR-8 ovarian. The compound further gave a TGI in the experiment with OVCAR-3 ovarian of 31.3 µM.

Consider `Oc1ccccc1/C=N\Nc1ccccc1`, for which the GI50 with TK-10 renal is 24.9 µM; with SK-OV-3 ovarian it was 70.4 µM; in the experiment on NCI/ADR-RES ovarian, 3.2 µM; in the experiment with IGROV1 ovarian, 21.7 µM; in the experiment on NCI-H522 lung, 1.73 µM; with OVCAR-8 ovarian, 4.94 µM. In addition, the GI50 with OVCAR-3 ovarian is 10.4 µM. In addition, the TGI is over 100 µM with TK-10 renal; over 100 µM in the experiment with SK-OV-3 ovarian; 88.5 µM in the experiment with NCI/ADR-RES ovarian; over 100 µM in the experiment on IGROV1 ovarian; 82.9 µM with NCI-H522 lung; over 100 µM with OVCAR-8 ovarian. The compound further returned a TGI in the experiment on OVCAR-3 ovarian of over 100 µM.

As for `Cc1nccc2c3ccc(OCc4cn(-c5ccc(Br)cc5)nn4)cc3n(CCCc3ccccc3)c12`, the GI50 with TK-10 renal was 1.62 µM; in the experiment on SK-OV-3 ovarian, 31.2 µM; with NCI/ADR-RES ovarian it was 1.79 µM; in the experiment with IGROV1 ovarian, 6.44 µM; in the experiment with OVCAR-8 ovarian, 2.12 µM; in the experiment on OVCAR-3 ovarian, over 100 µM. Also, the TGI in the experiment with TK-10 renal is 3.29 µM; with SK-OV-3 ovarian, over 100 µM; in the experiment on NCI/ADR-RES ovarian, 4.61 µM; in the experiment on IGROV1 ovarian it was over 100 µM; with OVCAR-8 ovarian, 5.09 µM; with OVCAR-3 ovarian, over 100 µM.

Consider `N#Cc1ccc(O)c(C2=NCC(c3ccc(-c4ccccc4)cc3)O2)c1` (configuration not stated), for which the GI50 is 0.664 µM in the experiment with SK-OV-3 ovarian; 0.148 µM in the experiment with NCI/ADR-RES ovarian; 0.478 µM in the experiment on IGROV1 ovarian; 0.4 µM with NCI-H522 lung; 0.529 µM with SR leukemia; 0.361 µM in the experiment with OVCAR-8 ovarian. The GI50 in the experiment on OVCAR-3 ovarian was 0.368 µM. For the same compound, the TGI with SK-OV-3 ovarian was 14.4 µM; in the experiment on NCI/ADR-RES ovarian, 5.7 µM; in the experiment with IGROV1 ovarian it was 14.3 µM; in the experiment with NCI-H522 lung, 10.6 µM; with SR leukemia it was over 100 µM; with OVCAR-8 ovarian, 13 µM. Also, the TGI in the experiment with OVCAR-3 ovarian was 11.7 µM.

Consider `COc1ccc(Cl)cc1Nc1nc(C(F)(F)F)ccc1C(=O)N/N=C/c1ccccc1Cl`, for which the GI50 in the experiment with TK-10 renal was 0.442 µM; with SK-OV-3 ovarian, 1.58 µM; with NCI/ADR-RES ovarian it was 2.83 µM; with IGROV1 ovarian, 2.76 µM; in the experiment on NCI-H522 lung, 2.74 µM; with OVCAR-8 ovarian it was 2.4 µM. Besides, in the experiment with OVCAR-3 ovarian, the GI50 is 1.04 µM. Moreover, the TGI in the experiment with TK-10 renal is 4.61 µM; in the experiment on SK-OV-3 ovarian it was 12.5 µM; with NCI/ADR-RES ovarian, over 28.4 µM; with IGROV1 ovarian, over 24.7 µM; in the experiment with NCI-H522 lung, 16 µM; in the experiment on OVCAR-8 ovarian, over 31 µM. In addition, the TGI in the experiment on OVCAR-3 ovarian is 3.75 µM.

Consider `Cc1cc(C(=O)CC(Cl)=C(Cl)Cl)c(Cl)cc1Cl`, for which the GI50 was 15.9 µM with TK-10 renal; 49.8 µM in the experiment with SK-OV-3 ovarian; 33.5 µM in the experiment on NCI/ADR-RES ovarian; 22 µM in the experiment with IGROV1 ovarian; 22.6 µM in the experiment on NCI-H522 lung; 21.7 µM with OVCAR-8 ovarian. Moreover, the GI50 in the experiment on OVCAR-3 ovarian is 21.4 µM. The TGI in the experiment with TK-10 renal was 32 µM; with SK-OV-3 ovarian it was over 100 µM; in the experiment on NCI/ADR-RES ovarian, over 100 µM; in the experiment on IGROV1 ovarian it was 82.9 µM; in the experiment with NCI-H522 lung it was 69.4 µM; in the experiment on OVCAR-8 ovarian, 46.3 µM. Moreover, in the experiment with OVCAR-3 ovarian, the TGI is 54.1 µM.

Turning to `CCCCNP1(NCCCC)=NP(NCCCC)(NCCCC)=NP(NCCCC)(NCCCC)=NP(NCCCC)(NCCCC)=N1`, the GI50 with TK-10 renal was 0.933 µM; in the experiment on SK-OV-3 ovarian, 1.07 µM; in the experiment with NCI/ADR-RES ovarian, 73.3 µM; in the experiment on IGROV1 ovarian it was 0.584 µM; in the experiment with NCI-H522 lung, 0.287 µM; in the experiment on OVCAR-8 ovarian, 1.98 µM. Moreover, the GI50 in the experiment with OVCAR-3 ovarian was 0.243 µM. Besides, the TGI was 13 µM with TK-10 renal; 9.75 µM in the experiment with SK-OV-3 ovarian; over 100 µM in the experiment on NCI/ADR-RES ovarian; 11.6 µM with IGROV1 ovarian; 4.3 µM in the experiment on NCI-H522 lung; 17.4 µM in the experiment on OVCAR-8 ovarian. Further, the TGI with OVCAR-3 ovarian stood at 0.871 µM.

On to `Cc1cc2oc(=O)cc(OC/C=C3/CCC(=O)O3)c2cc1C`, for which the GI50 in the experiment on TK-10 renal was 2 µM; in the experiment on SK-OV-3 ovarian, 12.8 µM; in the experiment with NCI/ADR-RES ovarian, 5.09 µM; in the experiment on IGROV1 ovarian, 3.33 µM; with NCI-H522 lung, 1.4 µM; in the experiment on OVCAR-8 ovarian, 4.62 µM. In the experiment with OVCAR-3 ovarian, the GI50 was 2.93 µM. Moreover, the TGI with TK-10 renal turned out to be 8.34 µM; in the experiment with SK-OV-3 ovarian, 26.1 µM; with NCI/ADR-RES ovarian it was 23.2 µM; in the experiment with IGROV1 ovarian it was 14.6 µM; in the experiment on NCI-H522 lung, 2.97 µM; with OVCAR-8 ovarian, 19.5 µM. Also, in the experiment with OVCAR-3 ovarian, the TGI was determined as 11.4 µM.

Take `Cn1c2ccccc2c2c(=O)n(CCCC(=O)NCCc3cnc[nH]3)c3c(-c4ccccc4)nnn3c21`: the GI50 was 4.8 µM with TK-10 renal; 10.2 µM in the experiment on SK-OV-3 ovarian; over 50 µM with NCI/ADR-RES ovarian; 4.03 µM in the experiment on SR leukemia; 10.1 µM in the experiment on OVCAR-8 ovarian; 8.39 µM in the experiment on OVCAR-3 ovarian. Also, the TGI in the experiment with TK-10 renal was 11.5 µM; in the experiment with SK-OV-3 ovarian, 18.7 µM; in the experiment with NCI/ADR-RES ovarian, over 50 µM; in the experiment with SR leukemia, over 50 µM; with OVCAR-8 ovarian it was 20.8 µM; in the experiment with OVCAR-3 ovarian, 16.3 µM.

For the compound `O=C(O)CC(S)C(=O)O.[Li+].[Sb]` (configuration not stated), the GI50 in the experiment on TK-10 renal is over 100 µM; in the experiment on NCI/ADR-RES ovarian, over 100 µM; with IGROV1 ovarian, over 100 µM; in the experiment with SR leukemia, 32.9 µM; with OVCAR-8 ovarian, over 100 µM; in the experiment with OVCAR-3 ovarian, over 100 µM. Besides, the TGI in the experiment on TK-10 renal, with NCI/ADR-RES ovarian, in the experiment on IGROV1 ovarian, in the experiment on SR leukemia, in the experiment on OVCAR-8 ovarian and with OVCAR-3 ovarian was over 100 µM throughout.

With `COc1ccc2[nH]cc(C3(c4c[nH]c5ccc(OC)cc45)C(=O)Nc4ccc(Cl)cc43)c2c1`, the GI50 was 5.42 µM in the experiment on SK-OV-3 ovarian; 9.98 µM in the experiment on NCI/ADR-RES ovarian; 3.28 µM in the experiment with IGROV1 ovarian; 3.36 µM in the experiment with OVCAR-8 ovarian; 2.99 µM with OVCAR-3 ovarian. In addition, the TGI with SK-OV-3 ovarian is 23.4 µM; in the experiment on NCI/ADR-RES ovarian, over 100 µM; in the experiment with IGROV1 ovarian, 21.2 µM; in the experiment on OVCAR-8 ovarian it was 18.7 µM; with OVCAR-3 ovarian it was 8.5 µM.

On to `CCC(C)C1NC(=O)C(CC(C)C)NC(=O)C(C(C)C)NC(=O)C2CSSCC(NC1=O)C(=O)N2` (configuration not stated) (cyclo(CCVLI); disulfide 1-2; configuration not given here), for which the TGI in the experiment on TK-10 renal is 1.93 µM; with NCI/ADR-RES ovarian, over 100 µM; in the experiment on IGROV1 ovarian, 0.309 µM; in the experiment with NCI-H522 lung it was 0.355 µM; in the experiment on OVCAR-8 ovarian, 0.491 µM; with OVCAR-3 ovarian it was 0.395 µM.

As for `C=C1C(=O)O[C@H]2[C@H]1CC/C(CNC(=O)C(C)c1ccc(CC(C)C)cc1)=C\CC[C@@]1(C)O[C@@H]21` (some centres not stated), the GI50 in the experiment with TK-10 renal was 1.66 µM; in the experiment on SK-OV-3 ovarian it was 12.3 µM; in the experiment with NCI/ADR-RES ovarian, 2.07 µM; in the experiment on IGROV1 ovarian it was 1.59 µM; in the experiment with NCI-H522 lung, 1.63 µM; in the experiment on OVCAR-8 ovarian, 1.88 µM. The GI50 in the experiment on OVCAR-3 ovarian is 1.54 µM. Moreover, the TGI in the experiment on TK-10 renal turned out to be 3.02 µM; in the experiment on SK-OV-3 ovarian it was 24.8 µM; with NCI/ADR-RES ovarian, 5.47 µM; with IGROV1 ovarian it was 3.43 µM; in the experiment on NCI-H522 lung, 3.5 µM; with OVCAR-8 ovarian, 5.96 µM. In the experiment with OVCAR-3 ovarian, this compound had a TGI of 2.95 µM.
